Assay results as given in ChEMBL document CHEMBL5543151, “Rational Design of a Novel Class of Human ClpP Agonists through a Ring-Opening Strategy with Enhanced Antileukemia Activity” (J Med Chem, 2024).

How the values were obtained:
[1] = Bioavailability in Sprague-Dawley rat at 5 mg/kg, iv measured upto 12 hrs by LC-MS analysis; format: ADME, organism-based; conditions: in vivo
[2] = Acute toxicity in BALB/c mouse assessed as pathological changes in spleen at 25 to 100 mg/kg, ip measured for 2 weeks by hematoxylin and eosin staining based assay; format: organism-based; conditions: in vivo, 336 h, dose 25-100 mg/kg
[3] = MRT (0 to 12hrs) in Sprague-Dawley rat at 15 mg/kg, po measured upto 12 hrs by LC-MS analysis; format: ADME, organism-based; conditions: in vivo
[4] = Acute toxicity in BALB/c mouse assessed as ALB2 biochemical parameter at 25 to 100 mg/kg, ip measured for 2 weeks; format: organism-based; conditions: in vivo, 336 h, dose 25-100 mg/kg
[5] = Acute toxicity in BALB/c mouse assessed as pathological changes in kidney at 25 to 100 mg/kg, ip measured for 2 weeks by hematoxylin and eosin staining based assay; format: organism-based; conditions: in vivo, 336 h, dose 25-100 mg/kg
[6] = Toxicity in BALB/c nude mouse transplanted with human MV4-11 cells assessed as pathological damage in heart at 2.5 to 10 mg/kg, ip measured for 17 days by hematoxylin and eosin staining based assay; format: organism-based; conditions: in vivo, 408 h, dose 2.5-10 mg/kg, time 17 day
[7] = Acute toxicity in BALB/c mouse assessed as vTP2 biochemical parameter at 25 to 100 mg/kg, ip measured for 2 weeks; format: organism-based; conditions: in vivo, 336 h, dose 25-100 mg/kg
[8] = Toxicity in BALB/c nude mouse transplanted with human MV4-11 cells assessed as pathological damage in kidney at 2.5 to 10 mg/kg, ip measured for 17 days by hematoxylin and eosin staining based assay; format: organism-based; conditions: in vivo, 408 h, dose 2.5-10 mg/kg, time 17 day
[9] = Acute toxicity in BALB/c mouse assessed as pathological changes in heart at 25 to 100 mg/kg, ip measured for 2 weeks by hematoxylin and eosin staining based assay; format: organism-based; conditions: in vivo, 336 h, dose 25-100 mg/kg
[10] = Acute toxicity in BALB/c mouse assessed as ALTL biochemical parameter at 25 to 100 mg/kg, ip measured for 2 weeks; format: organism-based; conditions: in vivo, 336 h, dose 25-100 mg/kg
[11] = Half life in Sprague-Dawley rat at 15 mg/kg, po measured upto 12 hrs by LC-MS analysis; format: ADME, organism-based; conditions: in vivo
[12] = Acute toxicity in BALB/c mouse assessed as TRIGL biochemical parameter at 25 to 100 mg/kg, ip measured for 2 weeks; format: organism-based; conditions: in vivo, 336 h, dose 25-100 mg/kg
MV4-11 [13] = test: In vivo anti-leukemia activity against human MV4-11 cells transplanted in BALB/c nude mouse assessed as reduction in tumor volume at 5 mg/kg, ip twice weekly treatment started 7 th day of cell inoculum till 18 th day; format: functional; parameters: scale not given: the % may be the effect or the level left; conditions: time 11 day
MV4-11 [14] = test: In vivo anti-leukemia activity against human MV4-11 cells transplanted in BALB/c nude mouse assessed as reduction in tumor weight at 10 mg/kg, ip twice weekly treatment started 7 th day of cell inoculum till 18 th day; format: functional; parameters: scale not given: the % may be the effect or the level left; conditions: time 11 day
[15] = Acute toxicity in BALB/c mouse assessed as UA2 biochemical parameter at 25 to 100 mg/kg, ip measured for 2 weeks; format: organism-based; conditions: in vivo, 336 h, dose 25-100 mg/kg
[16] = Toxicity in BALB/c nude mouse transplanted with human MV4-11 cells assessed as pathological damage in liver at 2.5 to 10 mg/kg, ip measured for 17 days by hematoxylin and eosin staining based assay; format: organism-based; conditions: in vivo, 408 h, dose 2.5-10 mg/kg, time 17 day
[17] = Acute toxicity in BALB/c mouse assessed as LDHI2 biochemical parameter at 25 to 100 mg/kg, ip measured for 2 weeks; format: organism-based; conditions: in vivo, 336 h, dose 25-100 mg/kg
[18] = AUC(0 to 12hrs) in Sprague-Dawley rat at 5 mg/kg, iv measured upto 12 hrs by LC-MS analysis; format: ADME, organism-based; conditions: in vivo
[19] = MRT (0 to 12hrs) in Sprague-Dawley rat at 5 mg/kg, iv measured upto 12 hrs by LC-MS analysis; format: ADME, organism-based; conditions: in vivo
[20] = Toxicity in BALB/c nude mouse transplanted with human MV4-11 cells assessed as change in body weight at 2.5 to 10 mg/kg, ip measured for 17 days; format: organism-based; conditions: in vivo, 408 h, dose 2.5-10 mg/kg, time 17 day
[21] = Cmax in Sprague-Dawley rat at 15 mg/kg, po measured upto 12 hrs by LC-MS analysis; format: ADME, organism-based; conditions: in vivo
[22] = Toxicity in BALB/c nude mouse transplanted with human MV4-11 cells assessed as pathological damage in spleen at 2.5 to 10 mg/kg, ip measured for 17 days by hematoxylin and eosin staining based assay; format: organism-based; conditions: in vivo, 408 h, dose 2.5-10 mg/kg, time 17 day
[23] = Cmax in Sprague-Dawley rat at 5 mg/kg, iv measured upto 12 hrs by LC-MS analysis; format: ADME, organism-based; conditions: in vivo
[24] = Toxicity in BALB/c nude mouse transplanted with human MV4-11 cells assessed as pathological damage in lung at 2.5 to 10 mg/kg, ip measured for 17 days by hematoxylin and eosin staining based assay; format: organism-based; conditions: in vivo, 408 h, dose 2.5-10 mg/kg, time 17 day
[25] = Acute toxicity in BALB/c mouse assessed as adverse effect at 25 to 100 mg/kg, ip measured for 2 weeks; format: organism-based; conditions: in vivo, 336 h, dose 25-100 mg/kg
[26] = Acute toxicity in BALB/c mouse assessed as CREJ2 biochemical parameter at 25 to 100 mg/kg, ip measured for 2 weeks; format: organism-based; conditions: in vivo, 336 h, dose 25-100 mg/kg
[27] = Acute toxicity in BALB/c mouse assessed as pathological changes in liver at 25 to 100 mg/kg, ip measured for 2 weeks by hematoxylin and eosin staining based assay; format: organism-based; conditions: in vivo, 336 h, dose 25-100 mg/kg
[28] = Tmax in Sprague-Dawley rat at 15 mg/kg, po measured upto 12 hrs by LC-MS analysis; format: ADME, organism-based; conditions: in vivo
MV4-11 [29] = test: In vivo anti-leukemia activity against human MV4-11 cells transplanted in BALB/c nude mouse assessed as reduction in tumor weight at 2.5 mg/kg, ip twice weekly treatment started 7 th day of cell inoculum till 18 th day; format: functional; parameters: scale not given: the % may be the effect or the level left; conditions: time 11 day
[30] = Clearance in Sprague-Dawley rat at 5 mg/kg, iv measured upto 12 hrs by LC-MS analysis; format: ADME, organism-based; conditions: in vivo
MV4-11 [31] = test: In vivo anti-leukemia activity against human MV4-11 cells transplanted in BALB/c nude mouse assessed as reduction in tumor volume at 10 mg/kg, ip twice weekly treatment started 7 th day of cell inoculum till 18 th day; format: functional; parameters: scale not given: the % may be the effect or the level left; conditions: time 11 day
[32] = Acute toxicity in BALB/c mouse assessed as ALP2L biochemical parameter at 25 to 100 mg/kg, ip measured for 2 weeks; format: organism-based; conditions: in vivo, 336 h, dose 25-100 mg/kg
[33] = Acute toxicity in BALB/c mouse assessed as pathological changes in lung at 25 to 100 mg/kg, ip measured for 2 weeks by hematoxylin and eosin staining based assay; format: organism-based; conditions: in vivo, 336 h, dose 25-100 mg/kg
[34] = Acute toxicity in BALB/c mouse assessed as UREAL biochemical parameter at 25 to 100 mg/kg, ip measured for 2 weeks; format: organism-based; conditions: in vivo, 336 h, dose 25-100 mg/kg
[35] = Acute toxicity in BALB/c mouse assessed as ASTL biochemical parameter at 25 to 100 mg/kg, ip measured for 2 weeks; format: organism-based; conditions: in vivo, 336 h, dose 25-100 mg/kg
MV4-11 [36] = test: In vivo anti-leukemia activity against human MV4-11 cells transplanted in BALB/c nude mouse assessed as reduction in tumor weight at 5 mg/kg, ip twice weekly treatment started 7 th day of cell inoculum till 18 th day; format: functional; parameters: scale not given: the % may be the effect or the level left; conditions: time 11 day
[37] = Half life in Sprague-Dawley rat at 5 mg/kg, iv measured upto 12 hrs by LC-MS analysis; format: ADME, organism-based; conditions: in vivo
MV4-11 [38] = test: In vivo anti-leukemia activity against human MV4-11 cells transplanted in BALB/c nude mouse assessed as reduction in tumor volume at 2.5 mg/kg, ip twice weekly treatment started 7 th day of cell inoculum till 18 th day; format: functional; parameters: scale not given: the % may be the effect or the level left; conditions: time 11 day
[39] = AUC(0 to 12hrs) in Sprague-Dawley rat at 15 mg/kg, po measured upto 12 hrs by LC-MS analysis; format: ADME, organism-based; conditions: in vivo

Compound: Cl.N#Cc1cccc(CN2CCc3[nH]c(NCc4ccc(F)cc4)nc(=O)c3C2)c1
- bioavailability [1]: 32.7%
- Activity [2]: Non-Toxic
- MRT last at 12 h [3]: 2.4 h
- Activity [4]: Non-Toxic
- Activity [5]: Non-Toxic
- Activity [6]: Non-Toxic
- Activity [7]: Non-Toxic
- Activity [8]: Non-Toxic
- Activity [9]: Non-Toxic
- Activity [10]: Non-Toxic
- half-life [11]: 3.9 h
- Activity [12]: Non-Toxic
- Activity (MV4-11 [13]): 75.3%
- Activity (MV4-11 [14]): 88.88%
- Activity [15]: Non-Toxic
- Activity [16]: Non-Toxic
- Activity [17]: Non-Toxic
- AUC(0-t) at 12 h [18]: 791 ng·h/mL
- MRT last at 12 h [19]: 2.8 h
- Activity [20]: Non-Toxic
- Cmax [21]: 332 ng/mL
- Activity [22]: Non-Toxic
- Cmax [23]: 869 ng/mL
- Activity [24]: Non-Toxic
- Activity [25]: Non-Toxic
- Activity [26]: Non-Toxic
- Activity [27]: Non-Toxic
- Tmax [28]: 1 h
- Activity (MV4-11 [29]): 20.35%
- clearance [30]: 58.3 mL/min/kg
- Activity (MV4-11 [31]): 88.29%
- Activity [32]: Non-Toxic
- Activity [33]: Non-Toxic
- Activity [34]: Non-Toxic
- Activity [35]: Non-Toxic
- Activity (MV4-11 [36]): 67%
- half-life [37]: 4.9 h
- Activity (MV4-11 [38]): 20.52%
- AUC(0-t) at 12 h [39]: 780 ng·h/mL
